Data taken from ChEMBL document CHEMBL4118222, “Synthesis of C-ring-modified blebbistatin derivatives and evaluation of their myosin II ATPase inhibitory potency” (Bioorg Med Chem Lett, 2018).
The source made the active and inactive calls. No cut-off for these calls is given here.

How the values were obtained:
[1] = Inhibition of rabbit skeletal muscle myosin 2 ATPase in presence of F-actin after 1 hr; parameters: species or system Oryctolagus cuniculus
Oryctolagus cuniculus = species on record: Oryctolagus cuniculus; experiment: Inhibition of rabbit skeletal muscle myosin 2 ATPase in presence of F-actin at 100 uM after 1 hr

Row | IC50 [1] [µM] | inhibition (Oryctolagus cuniculus) | Structure (SMILES)
1 | 0.95 | – | Cc1ccc2c(c1)C(=O)[C@]1(O)CCN(c3ccccc3)C1=N2
2 | – | inactive | C=CCOCC1CC2(O)C(=O)c3cc(C)ccc3N=C2N1c1ccccc1 (mixture of isomers)
3 | 75 | – | Cc1ccc2c(c1)C(=O)[C@]1(O)C[C@H](CO)N(c3ccccc3)C1=N2 (racemic)
4 | – | inactive | Cc1ccc2c(c1)C(=O)[C@]1(O)C[C@@H](CO)N(c3ccccc3)C1=N2 (racemic)
